According to PubChem BioAssay AID1259407 (Chemical Carcinogenesis Research Information System (CCRIS), 2018):
The source made the active and inactive calls. How the calls were made is not given here.

Tested on: CCRIS mutagenicity, Ames/micronucleus/aberration tests
Assay: CCRIS mutagenicity studies
[1] = Test System: AMES SALMONELLA TYPHIMURIUM, Strain/Indicator: TA100, Metabolic Activation: NONE, Method: PREINCUBATION
[2] = Test System: AMES SALMONELLA TYPHIMURIUM, Strain/Indicator: TA98, Metabolic Activation: NONE, Method: PREINCUBATION
[3] = Test System: AMES SALMONELLA TYPHIMURIUM, Strain/Indicator: TA1535, Metabolic Activation: NONE, Method: PREINCUBATION

Compound: O=CC(Br)CBr (configuration not stated)
- mutagenic call [1]: active; positive
- mutagenic call (Test System: AMES SALMONELLA TYPHIMURIUM, Strain/Indicator: TA100, Metabolic Activation: RAT, LIVER, MICROSOMES, Method: PREINCUBATION): active; positive
- mutagenic call (Test System: UDS RAT HEPATOCYTES, Strain/Indicator: THY INCORP, Metabolic Activation: NONE): inactive; negative

Compound: CCCCCCC[CH2][Sn]([CH2]CCCCCCC)([S]CC(=O)OCCCCCC(C)C)[S]CC(=O)OCCCCCC(C)C
- mutagenic call (Test System: AMES SALMONELLA TYPHIMURIUM, Strain/Indicator: TA97, Metabolic Activation: HAMSTER, LIVER, S-9, AROCLOR 1254 (10 OR 30%), Method: PREINCUBATION): inactive; negative
- mutagenic call (Test System: AMES SALMONELLA TYPHIMURIUM, Strain/Indicator: TA97, Metabolic Activation: NONE, Method: PREINCUBATION): inactive; negative
- mutagenic call (Test System: AMES SALMONELLA TYPHIMURIUM, Strain/Indicator: TA97, Metabolic Activation: RAT, LIVER, S-9, AROCLOR 1254 (10 OR 30%), Method: PREINCUBATION): inactive; negative
- mutagenic call (Test System: AMES SALMONELLA TYPHIMURIUM, Strain/Indicator: TA98, Metabolic Activation: HAMSTER, LIVER, S-9, AROCLOR 1254 (10 OR 30%), Method: PREINCUBATION): inactive; negative
- mutagenic call [2]: inactive; negative
- mutagenic call (Test System: AMES SALMONELLA TYPHIMURIUM, Strain/Indicator: TA98, Metabolic Activation: RAT, LIVER, S-9, AROCLOR 1254 (10 OR 30%), Method: PREINCUBATION): inactive; negative
- mutagenic call (Test System: AMES SALMONELLA TYPHIMURIUM, Strain/Indicator: TA100, Metabolic Activation: HAMSTER, LIVER, S-9, AROCLOR 1254 (10 OR 30%), Method: PREINCUBATION): inactive; negative
- mutagenic call [1]: active; positive
- mutagenic call (Test System: AMES SALMONELLA TYPHIMURIUM, Strain/Indicator: TA100, Metabolic Activation: RAT, LIVER, S-9, AROCLOR 1254 (10 OR 30%), Method: PREINCUBATION): inactive; negative
- mutagenic call (Test System: AMES SALMONELLA TYPHIMURIUM, Strain/Indicator: TA1535, Metabolic Activation: HAMSTER, LIVER, S-9, AROCLOR 1254 (10 OR 30%), Method: PREINCUBATION): inactive; negative
- mutagenic call [3]: inactive; negative
- mutagenic call (Test System: AMES SALMONELLA TYPHIMURIUM, Strain/Indicator: TA1535, Metabolic Activation: RAT, LIVER, S-9, AROCLOR 1254 (10 OR 30%), Method: PREINCUBATION): inactive; negative

Compound: CC(C)NC(C)C
- mutagenic call (Test System: AMES SALMONELLA TYPHIMURIUM, Strain/Indicator: TA98, Metabolic Activation: HAMSTER, LIVER, S-9, AROCLOR 1254 (10%), Method: PREINCUBATION): inactive; negative
- mutagenic call [2]: inactive; negative
- mutagenic call (Test System: AMES SALMONELLA TYPHIMURIUM, Strain/Indicator: TA98, Metabolic Activation: RAT, LIVER, S-9, AROCLOR 1254 (10%), Method: PREINCUBATION): inactive; negative
- mutagenic call (Test System: AMES SALMONELLA TYPHIMURIUM, Strain/Indicator: TA100, Metabolic Activation: HAMSTER, LIVER, S-9, AROCLOR 1254 (10%), Method: PREINCUBATION): inactive; negative
- mutagenic call [1]: inactive; negative
- mutagenic call (Test System: AMES SALMONELLA TYPHIMURIUM, Strain/Indicator: TA100, Metabolic Activation: RAT, LIVER, S-9, AROCLOR 1254 (10%), Method: PREINCUBATION): inactive; negative
- mutagenic call (Test System: AMES SALMONELLA TYPHIMURIUM, Strain/Indicator: TA1535, Metabolic Activation: HAMSTER, LIVER, S-9, AROCLOR 1254 (10%), Method: PREINCUBATION): inactive; negative
- mutagenic call [3]: inactive; negative
- mutagenic call (Test System: AMES SALMONELLA TYPHIMURIUM, Strain/Indicator: TA1535, Metabolic Activation: RAT, LIVER, S-9, AROCLOR 1254 (10%), Method: PREINCUBATION): inactive; negative
- mutagenic call (Test System: AMES SALMONELLA TYPHIMURIUM, Strain/Indicator: TA1537, Metabolic Activation: HAMSTER, LIVER, S-9, AROCLOR 1254 (10%), Method: PREINCUBATION): inactive; negative
- mutagenic call (Test System: AMES SALMONELLA TYPHIMURIUM, Strain/Indicator: TA1537, Metabolic Activation: NONE, Method: PREINCUBATION): inactive; negative
- mutagenic call (Test System: AMES SALMONELLA TYPHIMURIUM, Strain/Indicator: TA1537, Metabolic Activation: RAT, LIVER, S-9, AROCLOR 1254 (10%), Method: PREINCUBATION): inactive; negative
